This is an account of results in patent US10988457B2, “TLR inhibitors” (Insilico Medicine IP Limited, priority 2019, dated 2021).

pIC50: −log10 of the molar value. Read-outs that look alike come from different tables or passages of the source.

In assay [1] the test system is TLR7/8. The assay is described as follows: TLR7/8 Inhibition Assay IC50 in human PBMC's, cytokine release after CL075 stimulation (Luminex). In kind it is cell-based. Conditions: human PBMC's from one donor, CL075 2 μg/mL, 24 hours, eight concentrations 0.01-100 μM. How it is done:
Cryopreserved human PBMC's were drip-thawed. Cells were diluted to the appropriate density (1×10^5 per well) and seeded into 96-well polypropylene plates with 150 μL per well of culture medium (RPMI 1640, 10% heat-inactivated FBS, 1% penicillin/streptomycin, 2 mM L-glutamine) for compound test wells.
Consequently, the final DMSO vehicle concentration in the assay was from 1 to 0.5%.
Than plates were centrifuged at 200×g for 10 minutes. […] Cytokine levels in each sample were determined using Luminex methodology, per the manufacturer's protocol.
The interpolated data were then normalized to the vehicle or unstimulated control.
Outlier calculation was performed using the Grubbs maximum normed residual test.
Eight test compounds were evaluated for their ability to inhibit the TLR7/8 in PBMC's from one human donor following incubation of 24 hours.

The test system of assay [2] is TLR7/8. The conditions noted are these: reference compound 100 nM, CL075 2 μg/mL, human PBMC's, 24 hours. The protocol:
Namely, in the present experiment their ability was evaluated to inhibit TLR7/8 in human PBMC's, as measured by the release of specific cytokines. The following cytokines were measured for a complete cytokine response profile (no dilution of samples): IL-1β, IL-6, IL-12p40, TNFα and IFNα.
Levels of each cytokine induction were interpolated from standard curves using a 5-parameter non-linear regression analysis, where y=(A+((B−A)/(1+(((B−E)/(E−A))*((x/C)^D))))). The interpolated data were then normalized to the vehicle control. Percent of control (PoC) was also calculated using the formula, PoC=(test sample/positive vehicle control)×100.
Cryopreserved human PBMC's were drip-thawed. Cells were diluted to the appropriate density (1×10^5 per well) and seeded into 96-well polypropylene plates with 150 μL per well of culture medium (RPMI 1640, 10% heat-inactivated Fetal Bovine Serum (FBS), 1% penicillin/streptomycin, 2 mM L-glutamine) for compound test wells. For the control wells, cells (1×10^5 per well) were plated in 150 μL per well of culture medium.
Cells were incubated at 37° C., 5% CO2 for 1 hour prior to the addition of test compounds or controls.
Test compounds were solubilized in DMSO to make 20× stock solutions, then diluted further with cell culture medium.
Test compounds were added to the PBMC's in volumes of 10 μL and incubated for 1 hour at 37° C., 5% CO2. Compounds were tested in duplicates at final assay concentrations of 10 μM.
Plates were incubated at 37° C., 5% CO2 for 24 hours. Plates were centrifuged at 200×g for 10 minutes. Cell culture supernatants were collected and stored at −80° C. until needed for analysis.
Harvested cell culture supernatants were measured for IL-1β, IL-6, IL-12p40, TNFα and IFNα release to assess dual TLR7/8 inhibition.

Setting [3] is: read-out: IC50 levels for test compounds, IFNα.
The mark [4] stands for this setting: read-out: IC50 levels for test compounds, IL-1β.
Where [5] appears, read: read-out: IC50 levels for test compounds, L-6.
Setting [6] is: read-out: IC50 levels for test compounds, L-12p40.
Setting [7] is: read-out: IC50 levels for test compounds, TNFα.

As for `N#Cc1ccc(N2CCCC(C(=O)NCCN3CCc4ccccc43)C2)c(F)c1` (stereo not drawn) [Compound 15], the pIC50 (in general, the IC50 on a negative log10 scale, so that one unit is a factor of ten) with TLR7/8 [1] (setting [3]) was less than 4.70; in the assay with TLR7/8 [1] (setting [4]) it was no less than 5.00; in the assay on TLR7/8 [1] (setting [5]) it was less than 4.70; in the assay with TLR7/8 [1] (setting [6]), 4.70 to 5.00; in the assay with TLR7/8 [1] (setting [7]) it was less than 4.70.

In the case of `COc1ccc2c(c1)CCN(CCNC(=O)C1CCN(c3ccc(C(F)(F)F)cn3)CC1)C2` [Compound 22, N-(2-(6-methoxy-3,4-dihydroisoquinolin-2(19)-yl)ethyl)-1-(5-(trifluoromethyl)pyridin-2-yl)piperidine-4-carboxamide], the pIC50 was no less than 5.00 in the assay with TLR7/8 [1] (setting [3]); less than 4.70 in the assay with TLR7/8 [1] (setting [4]); less than 4.70 with TLR7/8 [1] (setting [5]); less than 4.70 in the assay on TLR7/8 [1] (setting [6]); less than 4.70 in the assay with TLR7/8 [1] (setting [7]).

Consider `COc1ccc2c(c1)CCN(CCNC(=O)C1CCCN(c3ccc(C#N)cc3)C1)C2` (stereo not drawn) [Compound 24], for which the pIC50 in the assay on TLR7/8 [1] (setting [3]) was no less than 5.00; with TLR7/8 [1] (setting [4]), less than 4.70; with TLR7/8 [1] (setting [5]) it was less than 4.70; in the assay with TLR7/8 [1] (setting [6]), 4.70 to 5.00; in the assay on TLR7/8 [1] (setting [7]), less than 4.70.

With `COc1ccc2c(c1)CCN(CCNC(=O)C1CCCN(c3ccc(C#N)cc3F)C1)C2` (stereo not drawn) [Compound 25], the pIC50 is no less than 5.00 in the assay on TLR7/8 [1] (setting [3]); less than 4.70 in the assay on TLR7/8 [1] (setting [4]); no less than 5.00 in the assay on TLR7/8 [1] (setting [5]); 4.70 to 5.00 in the assay on TLR7/8 [1] (setting [6]); less than 4.70 in the assay with TLR7/8 [1] (setting [7]).

Regarding `COc1ccc2c(c1)CCN(CCCNC(=O)C1CCN(c3ccc(C#N)cc3)CC1)C2` [Compound 26], the pIC50 with TLR7/8 [1] (setting [3]) is no less than 5.00; in the assay on TLR7/8 [1] (setting [4]), less than 4.70; in the assay with TLR7/8 [1] (setting [5]) it was less than 4.70; in the assay on TLR7/8 [1] (setting [6]) it was 4.70 to 5.00; in the assay on TLR7/8 [1] (setting [7]) it was no less than 5.00.

For the compound `C[C@@H]1C[C@H]2[C@@H]3CCC4=CC(=O)C=C[C@]4(C)[C@@]3(F)[C@@H](O)C[C@]2(C)[C@@]1(O)C(=O)CO` [Dexamethasone, dexamethasone], in the assay with TLR7/8 [2], the “TLR7/8 Inhibition, IFNα (POC %)” value turned out to be 26.1%; the “TLR7/8 Inhibition, IL-1β (POC %)” value is 26.8%; the “TLR7/8 Inhibition, IL-6 (POC %)” value amounted to 34.7%; the “TLR7/8 Inhibition, IL-12p40 (POC %)” value worked out at 34.2%. Moreover, the “TLR7/8 Inhibition, TNFα (POC %)” value with TLR7/8 [2] stood at 95.2%.
